Results reported in US11123337B2, “4-methylsulfonyl-substituted piperidine urea compounds” (MYOKARDIA, INC., priority 2015, dated 2021).

Molecular target: bovine cardiac myosin (Bos taurus, UniProt Q9BE39)
Experiment: Myosin activation assay (PK/LDH-coupled ATPase, bovine cardiac myofibrils)
Format: biochemical
Conditions: AC20 = concentration at which total response is increased by twenty percent
Summary of the method: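 Skinned bovine cardiac myofibrils (1 mg/mL) in PIPES/MgCl2 buffer pH 6.8 at free Ca2+ giving ~50% (pCa ~6) or <5% (pCa 10) activation, with 50 μM ATP and 3.3% DMSO. ATPase rate from NADH absorbance at 340 nm (PK/LDH coupling) over 15 min at ambient temperature. AC20/AC50 from a four-parameter fit of DMSO-normalised rates.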

Sequence of bovine cardiac myosin (Q9BE39 whole entry): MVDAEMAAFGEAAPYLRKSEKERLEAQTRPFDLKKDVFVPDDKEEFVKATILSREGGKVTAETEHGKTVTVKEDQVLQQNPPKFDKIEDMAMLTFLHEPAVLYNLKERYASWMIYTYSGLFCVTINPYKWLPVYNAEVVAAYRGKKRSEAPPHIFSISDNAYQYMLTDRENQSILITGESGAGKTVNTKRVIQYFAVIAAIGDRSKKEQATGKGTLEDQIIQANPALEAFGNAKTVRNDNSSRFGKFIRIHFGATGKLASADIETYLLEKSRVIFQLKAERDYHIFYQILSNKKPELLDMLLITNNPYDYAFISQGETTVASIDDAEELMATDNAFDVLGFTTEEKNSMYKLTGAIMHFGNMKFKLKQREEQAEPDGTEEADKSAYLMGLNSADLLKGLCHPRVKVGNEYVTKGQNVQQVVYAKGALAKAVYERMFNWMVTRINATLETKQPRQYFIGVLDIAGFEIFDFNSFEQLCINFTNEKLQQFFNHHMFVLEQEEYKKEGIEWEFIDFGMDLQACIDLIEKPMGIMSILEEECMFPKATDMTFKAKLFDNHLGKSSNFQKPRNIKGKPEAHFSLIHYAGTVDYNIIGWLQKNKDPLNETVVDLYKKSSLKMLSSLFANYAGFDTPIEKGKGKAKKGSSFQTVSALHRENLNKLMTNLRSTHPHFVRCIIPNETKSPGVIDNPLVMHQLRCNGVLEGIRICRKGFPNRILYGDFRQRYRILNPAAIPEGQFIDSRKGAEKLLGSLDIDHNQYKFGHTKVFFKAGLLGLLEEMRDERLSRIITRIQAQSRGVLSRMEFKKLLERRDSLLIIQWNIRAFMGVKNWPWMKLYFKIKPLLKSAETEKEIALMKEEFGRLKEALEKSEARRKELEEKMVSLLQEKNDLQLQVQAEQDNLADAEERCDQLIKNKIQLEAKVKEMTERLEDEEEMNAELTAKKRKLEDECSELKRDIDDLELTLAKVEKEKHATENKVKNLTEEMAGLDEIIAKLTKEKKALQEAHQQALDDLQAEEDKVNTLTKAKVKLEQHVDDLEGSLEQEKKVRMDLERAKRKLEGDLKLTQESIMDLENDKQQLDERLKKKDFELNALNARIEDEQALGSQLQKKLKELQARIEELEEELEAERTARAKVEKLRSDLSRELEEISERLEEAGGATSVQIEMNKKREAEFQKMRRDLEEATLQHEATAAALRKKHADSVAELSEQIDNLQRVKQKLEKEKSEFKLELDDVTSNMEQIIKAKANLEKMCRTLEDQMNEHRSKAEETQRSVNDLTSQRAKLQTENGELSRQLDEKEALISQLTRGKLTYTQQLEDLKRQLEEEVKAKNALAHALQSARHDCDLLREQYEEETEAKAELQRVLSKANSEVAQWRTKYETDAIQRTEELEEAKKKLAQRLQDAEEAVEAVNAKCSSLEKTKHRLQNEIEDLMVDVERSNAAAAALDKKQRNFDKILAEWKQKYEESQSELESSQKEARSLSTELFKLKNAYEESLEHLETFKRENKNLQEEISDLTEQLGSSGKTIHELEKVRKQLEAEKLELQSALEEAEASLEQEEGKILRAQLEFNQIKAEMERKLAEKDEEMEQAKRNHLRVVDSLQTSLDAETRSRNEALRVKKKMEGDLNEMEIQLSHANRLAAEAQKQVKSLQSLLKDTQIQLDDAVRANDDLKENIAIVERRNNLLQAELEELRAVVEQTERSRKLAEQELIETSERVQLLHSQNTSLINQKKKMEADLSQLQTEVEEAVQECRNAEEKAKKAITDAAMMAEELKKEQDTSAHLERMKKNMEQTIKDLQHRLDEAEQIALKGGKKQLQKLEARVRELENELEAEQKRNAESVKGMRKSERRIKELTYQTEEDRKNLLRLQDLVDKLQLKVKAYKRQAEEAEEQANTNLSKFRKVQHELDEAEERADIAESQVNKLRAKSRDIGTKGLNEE
Sequence of bovine cardiac myosin (P85100 whole entry partner): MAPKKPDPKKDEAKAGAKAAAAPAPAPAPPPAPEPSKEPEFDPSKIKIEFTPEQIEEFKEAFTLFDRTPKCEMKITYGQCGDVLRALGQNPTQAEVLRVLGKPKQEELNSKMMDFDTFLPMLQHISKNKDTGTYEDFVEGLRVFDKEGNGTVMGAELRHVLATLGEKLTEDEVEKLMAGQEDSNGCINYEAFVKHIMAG
Sequence of bovine cardiac myosin (Q3SZE5 whole entry partner): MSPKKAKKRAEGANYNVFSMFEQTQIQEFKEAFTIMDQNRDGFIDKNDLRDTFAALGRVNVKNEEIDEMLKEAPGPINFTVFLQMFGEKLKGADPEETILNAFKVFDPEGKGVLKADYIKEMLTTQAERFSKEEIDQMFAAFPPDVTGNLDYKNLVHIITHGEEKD

SMILES	Myosin Activation (AC20)
O=C(Nc1ccnnc1)N1CCC(C(F)(F)S(=O)(=O)c2ccc(N3CCC3)nc2)CC1 [Compound 67, 4-(((6-(azetidin-1-yl)pyridin-3-yl)sulfonyl)difluoromethyl)-N-(pyridazin-4-yl)piperidine-1-carboxamide]	++ (++ represents myosin activation value AC20 from 2 μM-5 μM)
Cn1nccc1NC(=O)N1CCC(C(C)(C)S(=O)(=O)c2cccc(F)c2)CC1 [Compound 136, 4-(2-((3-fluorophenyl)sulfonyl)propan-2-yl)-N-(1-methyl-1H-pyrazol-5-yl)piperidine-1-carboxamide]	+ (+ represents myosin activation value AC20 > 5 μM)
CC(C)(C1CCN(C(=O)Nc2ccncc2Cl)CC1)S(=O)(=O)c1cccc(F)c1 [Compound 176, N-(3-chloropyridin-4-yl)-4-(2-((3-fluorophenyl)sulfonyl)propan-2-yl)piperidine-1-carboxamide]	+ (+ represents myosin activation value AC20 > 5 μM)
Cc1ccccc1S(=O)(=O)CC1CCN(C(=O)Nc2ccncc2)CC1 [Compound 39, N-(pyridin-4-yl)-4-((o-tolylsulfonyl)methyl)piperidine-1-carboxamide]	+ (+ represents myosin activation value AC20 > 5 μM)
Cn1nc(C(F)(F)F)cc1S(=O)(=O)[C@](C)(F)C1CCN(C(=O)Nc2ccnc(F)c2)CC1 [Compound 230, (S)-4-(1-fluoro-1-((1-methyl-3-(trifluoromethyl)-1H-pyrazol-5-yl)sulfonyl)ethyl)-N-(2-fluoropyridin-4-yl)piperidine-1-carboxamide]	+ (+ represents myosin activation value AC20 > 5 μM)
CC(C)(C1CCN(C(=O)Nc2ccon2)CC1)S(=O)(=O)c1ccc(C(F)(F)F)nc1 [Compound 113, N-(isoxazol-3-yl)-4-(2-((6-(trifluoromethyl)pyridin-3-yl)sulfonyl)propan-2-yl)piperidine-1-carboxamide]	+ (+ represents myosin activation value AC20 > 5 μM)
Cc1ccc(NC(=O)N2CCC(C(C)(C)S(=O)(=O)c3cc(C(F)(F)F)nn3C)CC2)cn1 [Compound 130, 4-(2-((1-methyl-3-(trifluoromethyl)-1H-pyrazol-5-yl)sulfonyl)propan-2-yl)-N-(6-methylpyridin-3-yl)piperidine-1-carboxamide]	++ (++ represents myosin activation value AC20 from 2 μM-5 μM)
C[C@@H](O)c1cc(NC(=O)N2CCC(C(F)(F)S(=O)(=O)c3cccc(F)c3)CC2)ccn1 [Compound 98, (R)-4-(difluoro((3-fluorophenyl)sulfonyl)methyl)-N-(2-(1-hydroxyethyl)pyridin-4-yl)piperidine-1-carboxamide]	+ (+ represents myosin activation value AC20 > 5 μM)
Cn1cnc(S(=O)(=O)C(F)(F)C2CCN(C(=O)Nc3ccnnc3)CC2)c1 [Compound 84, 4-(difluoro((1-methyl-1H-imidazol-4-yl)sulfonyl)methyl)-N-(pyridazin-4-yl)piperidine-1-carboxamide]	+ (+ represents myosin activation value AC20 > 5 μM)
CC(C)(C1CCN(C(=O)Nc2ccns2)CC1)S(=O)(=O)c1ccccc1C#N [Compound 201, 4-(2-((2-cyanophenyl)sulfonyl)propan-2-yl)-N-(isothiazol-5-yl)piperidine-1-carboxamide]	+ (+ represents myosin activation value AC20 > 5 μM)
O=C(Nc1ccnnc1)N1CCC(C2(S(=O)(=O)c3cccc(F)c3)CCC2)CC1 [Compound 43, 4-(1-((3-fluorophenyl)sulfonyl)cyclobutyl)-N-(pyridazin-4-yl)piperidine-1-carboxamide]	+++ (+++ represents myosin activation value AC20 < 2 μM)
O=C(Nc1ccnnc1)N1CCC(C2(S(=O)(=O)c3ccc(C(F)(F)F)cc3)CCC2)CC1 [Compound 165, N-(pyridazin-4-yl)-4-(1-((4-(trifluoromethyl)phenyl)sulfonyl)cyclobutyl)piperidine-1-carboxamide]	+++ (+++ represents myosin activation value AC20 < 2 μM)
CC(C)(C)OC(=O)n1cc(NC(=O)N2CCC(C(C)(F)S(=O)(=O)c3cccc(F)c3)CC2)cn1 (stereo not shown) [Compound 237, tert-butyl 4-(4-(1-fluoro-1-((3-fluorophenyl)sulfonyl)ethyl)piperidine-1-carboxamido)-1H-pyrazole-1-carboxylate]	+ (+ represents myosin activation value AC20 > 5 μM)
Cn1cc(S(=O)(=O)C(F)(F)C2CCN(C(=O)Nc3ccc(C#N)nc3)CC2)c(C(F)F)n1 [Compound 78, N-(6-cyanopyridin-3-yl)-4-(((3-(difluoromethyl)-1-methyl-1H-pyrazol-4-yl)sulfonyl)difluoromethyl)piperidine-1-carboxamide]	+ (+ represents myosin activation value AC20 > 5 μM)
CC(C)(C1CCN(C(=O)Nc2ccon2)CC1)S(=O)(=O)c1cccc(C#N)c1 [Compound 112, 4-(2-((3-cyanophenyl)sulfonyl)propan-2-yl)-N-(isoxazol-3-yl)piperidine-1-carboxamide]	++ (++ represents myosin activation value AC20 from 2 μM-5 μM)
C[C@@](F)(C1CCN(C(=O)Nc2ccc(C#N)nc2)CC1)S(=O)(=O)c1cccc(F)c1 [Compound 291, (S)-N-(6-cyanopyridin-3-yl)-4-(1-fluoro-1-((3-fluorophenyl)sulfonyl)ethyl)piperidine-1-carboxamide]	+ (+ represents myosin activation value AC20 > 5 μM)
Cn1nc(C(F)(F)F)cc1S(=O)(=O)C(C)(F)C1CCN(C(=O)Nc2ccnnc2)CC1 (stereo not shown) [Compound 277, 4-(1-fluoro-1-((1-methyl-3-(trifluoromethyl)-1H-pyrazol-5-yl)sulfonyl)ethyl)-N-(pyridazin-4-yl)piperidine-1-carboxamide]	+++ (+++ represents myosin activation value AC20 < 2 μM)
O=C(Nc1ccnnc1)N1CCC(C(F)(F)S(=O)(=O)c2ccccc2-n2cncn2)CC1 [Compound 86, 4-(((2-(1H-1,2,4-triazol-1-yl)phenyl)sulfonyl)difluoromethyl)-N-(pyridazin-4-yl)piperidine-1-carboxamide]	++ (++ represents myosin activation value AC20 from 2 μM-5 μM)
COc1c(F)cccc1S(=O)(=O)C(F)(F)C1CCN(C(=O)Nc2ccnnc2)CC1 [Compound 61, 4-(difluoro((3-fluoro-2-methoxyphenyl)sulfonyl)methyl)-N-(pyridazin-4-yl)piperidine-1-carboxamide]	++ (++ represents myosin activation value AC20 from 2 μM-5 μM)
Cn1cc(S(=O)(=O)C(C)(C)C2CCN(C(=O)Nc3ccon3)CC2)c(Cl)n1 [Compound 27, 4-(2-((3-Chloro-1-methyl-1H-pyrazol-4-yl)sulfonyl)propan-2-yl)-N-(isoxazol-3-yl)piperidine-1-carboxamide]	+ (+ represents myosin activation value AC20 > 5 μM)
Cn1cc(S(=O)(=O)C(C)(C)C2CCN(C(=O)Nc3ccnnc3)CC2)c(Cl)n1 [Compound 103, 4-(2-((3-chloro-1-methyl-1H-pyrazol-4-yl)sulfonyl)propan-2-yl)-N-(pyridazin-4-yl)piperidine-1-carboxamide]	++ (++ represents myosin activation value AC20 from 2 μM-5 μM)
COc1ccccc1S(=O)(=O)C(F)(F)C1CCN(C(=O)Nc2ccnnc2)CC1 [Compound 62, 4-(difluoro((2-methoxyphenyl)sulfonyl)methyl)-N-(pyridazin-4-yl)piperidine-1-carboxamide]	+ (+ represents myosin activation value AC20 > 5 μM)
Cn1nc(Cl)cc1S(=O)(=O)C(C)(C)C1CCN(C(=O)Nc2ccc(F)nc2)CC1 [Compound 114, 4-(2-((3-chloro-1-methyl-1H-pyrazol-5-yl)sulfonyl)propan-2-yl)-N-(6-fluoropyridin-3-yl)piperidine-1-carboxamide]	+++ (+++ represents myosin activation value AC20 < 2 μM)
C[C@](F)(C1CCN(C(=O)Nc2ccnnc2)CC1)S(=O)(=O)c1cccc(F)c1 [Compound 278, (R)-4-(1-fluoro-1-((3-fluorophenyl)sulfonyl)ethyl)-N-(pyridazin-4-yl)piperidine-1-carboxamide]	+++ (+++ represents myosin activation value AC20 < 2 μM)
Cn1nc(C(F)F)cc1S(=O)(=O)C(C)(C)C1CCN(C(=O)Nc2ccnc(F)c2)CC1 [Compound 105, 4-(2-((3-(difluoromethyl)-1-methyl-1H-pyrazol-5-yl)sulfonyl)propan-2-yl)-N-(2-fluoropyridin-4-yl)piperidine-1-carboxamide]	+++ (+++ represents myosin activation value AC20 < 2 μM)
Cn1nc(C(F)F)cc1S(=O)(=O)C(C)(C)C1CCN(C(=O)Nc2ccnnc2)CC1 [Compound 122, 4-(2-((3-(difluoromethyl)-1-methyl-1H-pyrazol-5-yl)sulfonyl)propan-2-yl)-N-(pyridazin-4-yl)piperidine-1-carboxamide]	+++ (+++ represents myosin activation value AC20 < 2 μM)
O=C(Nc1ccns1)N1CCC(C2(S(=O)(=O)c3cccc(F)c3)CC2)CC1 [Compound 217, 4-(1-((3-fluorophenyl)sulfonyl)cyclopropyl)-N-(isothiazol-5-yl)piperidine-1-carboxamide]	+++ (+++ represents myosin activation value AC20 < 2 μM)
C[C@](F)(C1CCN(C(=O)Nc2ccon2)CC1)S(=O)(=O)c1ccc(OC(F)F)nc1 [Compound 312, (R)-4-(1-((6-(difluoromethoxy)pyridin-3-yl)sulfonyl)-1-fluoroethyl)-N-(isoxazol-3-yl)piperidine-1-carboxamide]	+++ (+++ represents myosin activation value AC20 < 2 μM)
